# Reference: PubChem BioAssay AID1963962 (Molecular Pharmacology Branch, DTP, NCI, 2024)
# Test system: 967376-340-R-J2-PDC multicell spheroid viability
# Assay: Anticancer human tumor 967376-340-R-J2-PDC patient-derived colon adenocarcinoma cell line growth inhibition [PI3K]
# Settings: for IC50: curve of first compound; for viability, T/C: stronger effect = lower value
# Excerpt: Combinatorial screen of targeted agents with the PI3K inhibitors inavolisib, alpelisib, duvelisib, and copanlisib in multi-cell type tumor spheroids
# A high-throughput screen of multi-cell type tumor spheroids was designed to identify active combinations of targeted small molecules and PI3K pathway inhibitors. Complex spheroids include a stromal component modeled by human endothelial cells (HUVEC) and fibroblasts modeled by human mesenchymal stem cells (MSCs). The concentration ranges selected for each drug and investigational agent were based upon clinically achievable concentrations if the clinical Cmax of the agent was known.
# Compounds. The drugs and investigational agents: inavolisib (NSC800729), alpelisib (NSC765974), duvelisib (NSC772469), copanlisib (NSC816437), ipatasertib (NSC767898), afuresertib (NSC778305), talazoparib (NSC767125), sapanisertib (NSC764658), selumetinib (NSC741078), tovorafenib (DAY101, NSC766906), vemurafenib (NSC761431), ravoxertinib (NSC781343), sotorasib (NSC818433), MRTX1133 (NSC 836407), abemaciclib (NSC 768073), palbociclib (NSC758247), venetoclax (NSC 766270), SY5609 (NSC837396), enzalutamide (NSC755605), and darolutamide (NSC825331), were obtained from the National Cancer Institute (NCI) Developmental Therapeutics Program Chemical Repository. The FDA-approved anticancer drug set is available from the NCI Developmental Therapeutics Program. […] The stock solutions were prepared in dimethyl sulfoxide (DMSO, Sigma-Aldrich, St. Louis, MO, cat. D2650) at 800-fold the tested concentration and stored at -70 degrees C prior to their use. All drugs and investigational agents were tested over a range starting from a high concentration at or near the clinical Cmax and decreasing in half-log increments. If the clinical Cmax for an agent had not been determined, the highest concentration tested was 10 microM.
# Cell Culture. All cells were maintained in an incubator at 37 degrees C and 5% CO2 with 95% humidity. The PDC lines were cultured according to standard operating procedures established by the NCI PDMR (https://pdmr.cancer.gov/sops/default.htm). All PDCs were thawed and cultured in Matrigel-coated flasks prepared with a working solution of 1X Ham's F-12 nutrient mix, without supplementation (Invitrogen, Waltham, MA, cat. 11765054), 100 U/mL penicillin-streptomycin (Invitrogen, cat. 15140122), and 2.5% Matrigel (Corning Inc., Corning, NY, cat. 354248) for the first three passages. The 354836-022-R-J1-PDC, 475296-252-R-J1-PDC, and 997726-040-R-J2-PDC lines were cultured in 6A media, which includes advanced DMEM/F-12 (Thermo Fisher Scientific, cat. 12634028), 10 mM HEPES (Thermo Fisher Scientific, cat. 15630080), 1X GlutaMAX supplement (Thermo Fisher Scientific, cat. 35050061), 0.1 mg/mL primocin (InvivoGen, San Diego, CA, cat. ant-pm-2), 10% defined fetal bovine serum, heat inactivated (HyClone Laboratories Inc., Logan, UT, cat. SH30070.03HI), 50% L-WRN conditioned media (ATCC, cat. CRL-3276), 1.25 mM N-Acetyl-L-cysteine (Sigma-Aldrich, cat. A9165), 10 mM nicotinamide (Sigma-Aldrich, cat. N0636), 1X B-27 supplement (Thermo Fisher Scientific, cat. 17504044), 1X N-2 supplement (Thermo Fisher Scientific, cat. 17502048), and 10 microM Y-27632 dihydrochloride (Tocris Bioscience, Bristol, United Kingdom, cat. 1254). The 624824-186-R-J2-PDC line was cultured in 6C/Colon 1B media, which includes all 6A media components plus 50 ng/mL human EGF recombinant protein (Thermo Fisher Scientific, cat. PHG0311). […]
# [1] = second compound 0.00316 µM, first compound 0.0316 µM
# [2] = second compound 0.00316 µM, first compound 0.1 µM
# [3] = second compound 0.00316 µM, first compound 0.316 µM
# [4] = second compound 0.00316 µM, first compound 1 µM
# [5] = second compound 0.00316 µM, first compound 3.16 µM
# [6] = second compound 0.00316 µM, first compound 10 µM
# [7] = second compound 0.01 µM, first compound 0.0316 µM
# [8] = second compound 0.01 µM, first compound 0.1 µM
# [9] = second compound 0.01 µM, first compound 0.316 µM
# [10] = second compound 0.01 µM, first compound 1 µM
# [11] = second compound 0.01 µM, first compound 3.16 µM
# [12] = second compound 0.01 µM, first compound 10 µM
# [13] = second compound 0.0316 µM, first compound 0.0316 µM
# [14] = second compound 0.0316 µM, first compound 0.1 µM
# [15] = second compound 0.0316 µM, first compound 0.316 µM
# [16] = second compound 0.0316 µM, first compound 1 µM
# [17] = second compound 0.0316 µM, first compound 3.16 µM
# [18] = second compound 0.0316 µM, first compound 10 µM
# [19] = second compound 0.1 µM, first compound 0.0316 µM
# [20] = second compound 0.1 µM, first compound 0.1 µM
# [21] = second compound 0.1 µM, first compound 0.316 µM
# [22] = second compound 0.1 µM, first compound 1 µM
# [23] = second compound 0.1 µM, first compound 3.16 µM
# [24] = second compound 0.1 µM, first compound 10 µM
# [25] = second compound 0.316 µM, first compound 0.0316 µM
# [26] = second compound 0.316 µM, first compound 0.1 µM
# [27] = second compound 0.316 µM, first compound 0.316 µM
# [28] = second compound 0.316 µM, first compound 1 µM
# [29] = second compound 0.316 µM, first compound 3.16 µM
# [30] = second compound 0.316 µM, first compound 10 µM
# [31] = second compound 1 µM, first compound 0.0316 µM
# [32] = second compound 1 µM, first compound 0.1 µM
# [33] = second compound 1 µM, first compound 0.316 µM
# [34] = second compound 1 µM, first compound 1 µM
# [35] = second compound 1 µM, first compound 3.16 µM
# [36] = second compound 1 µM, first compound 10 µM
# 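Also: spheroids exposed to agents for 7 days before read-out.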
# 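For viability, T/C in this document: luminescence used as surrogate of cell viability.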
compound,measurement,setting,value
C#Cc1c(F)ccc2cc(O)cc(-c3ncc4c(N5CC6CCC(C5)N6)nc(OCC56CCCN5CC(F)C6)nc4c3F)c12 (centres undefined) + CC(Nc1ccc2c(c1)OCCn1cc(N3C(=O)OCC3C(F)F)nc1-2)C(N)=O,IC50,second compound 0.00316 µM,> 10 µM
same,IC50,second compound 0.01 µM,> 10 µM
same,IC50,second compound 0.0316 µM,> 10 µM
same,IC50,second compound 0.1 µM,> 10 µM
same,IC50,second compound 0.316 µM,> 10 µM
same,IC50,second compound 1 µM,2.26 µM
same,"viability, T/C",[1],115%
same,"viability, T/C",[2],99.1%
same,"viability, T/C",[3],72.3%
same,"viability, T/C",[4],68.5%
same,"viability, T/C",[5],94.5%
same,"viability, T/C",[6],65.7%
same,"viability, T/C",[7],81.8%
same,"viability, T/C",[8],86%
same,"viability, T/C",[9],78.7%
same,"viability, T/C",[10],87.5%
same,"viability, T/C",[11],97.7%
same,"viability, T/C",[12],59.6%
same,"viability, T/C",[13],78.5%
same,"viability, T/C",[14],105%
same,"viability, T/C",[15],71.6%
same,"viability, T/C",[16],62.3%
same,"viability, T/C",[17],98.7%
same,"viability, T/C",[18],56.6%
same,"viability, T/C",[19],79.7%
same,"viability, T/C",[20],82%
same,"viability, T/C",[21],86.6%
same,"viability, T/C",[22],70.7%
same,"viability, T/C",[23],62%
same,"viability, T/C",[24],58.6%
same,"viability, T/C",[25],55.1%
same,"viability, T/C",[26],73.9%
same,"viability, T/C",[27],63.8%
same,"viability, T/C",[28],60.7%
same,"viability, T/C",[29],67.6%
same,"viability, T/C",[30],45.5%
same,"viability, T/C",[31],62.7%
same,"viability, T/C",[32],58.6%
same,"viability, T/C",[33],57.4%
same,"viability, T/C",[34],56.3%
same,"viability, T/C",[35],47.8%
same,"viability, T/C",[36],32.9%
CC(Cn1ccc(-c2ccc(C#N)c(Cl)c2)n1)NC(=O)c1cc(C(C)O)[nH]n1 (centres undefined) + CC(Nc1ccc2c(c1)OCCn1cc(N3C(=O)OCC3C(F)F)nc1-2)C(N)=O,IC50,second compound 0.00316 µM,> 10 µM
same,IC50,second compound 0.01 µM,> 10 µM
same,IC50,second compound 0.0316 µM,> 10 µM
same,IC50,second compound 0.1 µM,> 10 µM
same,IC50,second compound 0.316 µM,> 10 µM
same,IC50,second compound 1 µM,> 10 µM
same,"viability, T/C",[1],109%
same,"viability, T/C",[2],112%
same,"viability, T/C",[3],126%
same,"viability, T/C",[4],93.5%
same,"viability, T/C",[5],125%
same,"viability, T/C",[6],105%
same,"viability, T/C",[7],115%
same,"viability, T/C",[8],78.3%
same,"viability, T/C",[9],126%
same,"viability, T/C",[10],101%
same,"viability, T/C",[11],102%
same,"viability, T/C",[12],117%
same,"viability, T/C",[13],82.6%
same,"viability, T/C",[14],104%
same,"viability, T/C",[15],101%
same,"viability, T/C",[16],97.1%
same,"viability, T/C",[17],93.7%
same,"viability, T/C",[18],84.8%
same,"viability, T/C",[19],84.5%
same,"viability, T/C",[20],74.1%
same,"viability, T/C",[21],75%
same,"viability, T/C",[22],83.9%
same,"viability, T/C",[23],85.2%
same,"viability, T/C",[24],67.4%
same,"viability, T/C",[25],75.7%
same,"viability, T/C",[26],72.3%
same,"viability, T/C",[27],76.4%
same,"viability, T/C",[28],62.4%
same,"viability, T/C",[29],69.4%
same,"viability, T/C",[30],78.2%
same,"viability, T/C",[31],59.8%
same,"viability, T/C",[32],54%
same,"viability, T/C",[33],66.7%
same,"viability, T/C",[34],51%
same,"viability, T/C",[35],61.2%
same,"viability, T/C",[36],60.2%
